Experimental data taken from patent publication US20200093856A1, “Hydrogen-containing composition for ameliorating depressive symptom” (MiZ Company Limited, priority 2018, published 2020).

Tested on: patient diagnosed as having depression
Assay: Case of improvement of depressive symptoms by aspiration (or inhalation) of hydrogen
Type: in vivo, human
Conditions: for symptoms (depressive symptoms, anthropophobia, insomnia) under prescribed medication: patient, Abilify intramuscular injections, Lexotan Tablet 2 and Brotizolam Tablet taken together, before hydrogen
Excerpt: A patient diagnosed as having depression, who had suffered from anthropophobia and insomnia along with depressive symptoms, received intramuscular injections of Abilify™ (Otsuka Pharmaceutical Co., Ltd. (Japan); with indication of depressive disorder) prescribed by a doctor at the department of psychiatry, and took Lexotan™ Tablet 2 (Chugai Pharmaceutical Co., Ltd. (Japan); with an indications of anxiety and tension associated with depressive disorder) and Brotizolam Tablet (Choseido Pharmaceutical Co., Ltd.; with indication of insomnia); however, the symptoms were not improved. Thus, hydrogen gas (70 to 140 ml/min) was aspirated for 1 hour once or twice a day using a hydrogen aspirator (MHG-2000α™ (MiZ Company Limited)) over about half a year while the medication was continued. As a result, the number of days on which it was possible to naturally fall asleep increased (2 or 3 days a week), and the liveliness of voice was enhanced. About half a year after the start of aspiration (or inhalation) of hydrogen gas, administration of the Brotizolam Tablet was discontinued, and the amount of hydrogen gas aspirated was increased (280 ml/min for 6 hours per day). The aspiration of hydrogen gas was continued over about 3 months. As a result, the depressive symptoms were improved, and therefore the use of Abilify and Lexotan Tablet 2 was discontinued on the basis of the doctor's judgement. […] After the use of Abilify and Lexotan Tablet 2, aspiration of hydrogen gas (280 ml/min for 6 hours per day) was continued.

[1] = hydrogen gas 280 ml/min for 6 hours per day continued after Abilify and Lexotan Tablet 2 were discontinued

SMILES: O=C1CCc2ccc(OCCCCN3CCN(c4cccc(Cl)c4Cl)CC3)cc2N1 [Abilify, aripiprazole, reference compound]
- symptoms (depressive symptoms, anthropophobia, insomnia) under prescribed medication: not improved

SMILES: Cc1nnc2n1-c1sc(Br)cc1C(c1ccccc1Cl)=NC2 [Brotizolam Tablet, Brotizolam, reference compound]
- symptoms (depressive symptoms, anthropophobia, insomnia) under prescribed medication: not improved

SMILES: O=C1CN=C(c2ccccn2)c2cc(Br)ccc2N1 [Lexotan Tablet 2, bromazepam, reference compound]
- symptoms (depressive symptoms, anthropophobia, insomnia) under prescribed medication: not improved

SMILES: [HH] [hydrogen gas, hydrogen]
- liveliness of voice (hydrogen gas 70 to 140 ml/min aspirated 1 hour once or twice a day over about half a year, medication continued): enhanced
- care personnel's evaluation of the patient [1]: being much more cheerful in disposition than before
- depressive symptoms [1]: improved to the extent that the patient went outside more frequently than before, and enjoyed a life similar to a healthy person
- depressive symptoms (hydrogen gas 280 ml/min for 6 hours per day over about 3 months, Brotizolam discontinued, Abilify and Lexotan continued): improved
- improving effect on depressive symptoms versus amount of hydrogen gas aspirated per day (same patient, 70 to 140 ml/min 1 hour once or twice a day versus 280 ml/min 6 hours per day): enhanced as the amount of hydrogen gas aspirated by the patient per day increases
